One series in a line: Cytotoxicity assay (MTT). The class given is cell-based. Conditions: African green monkey (Cercopithecus aethiops), Vero cells (CCL-81); 4 h of treatment; read-out: Vero cells (CCL-81) CC50 - 4h (CI). Here is the method:
Vero cells (CCL-81) isolated from the kidney of the African green monkey Cercopithecus aethiops were purchased from ATCC® (Washington DC, USA). The cells were inoculated in 200 μL of Dulbecco’s modified Eagle (DMEM) medium in 96-well plates at a concentration of 2 × 10^4 cells/well and incubated at 37°C for 24 h for adherence of the cells. Six different concentrations of the compounds (12 to 900 μM for butanolides, and 200 to 1,600 μM for benznidazole) were added to the wells. After 4 or 24 h of treatment, the cells were washed and cell viability was assessed using MTT (3-(4,5-Dimethylthiazol-2-yl)-2,5-Diphenyltetrazolium Bromide) assay (2 mg/mL). After 4 h of incubation at 37°C in a CO2 atmosphere, the wells were washed and 100% DMSO was added to solubilize the formazan crystals. The absorbance was measured at 570 nm using an ELISA plate reader (Biotek Model EL-800, VT, USA). DMSO (1%) treatment served as negative control and benznidazole treatment served as positive control.
(§1) The 50% cytotoxic concentration (CC50), x % inhibitory concentration (ICx = IC25, IC50, IC75, or IC90), and 50% lethal concentration (LC50) values were obtained from the percentage of inhibition/death versus log concentration of each compound, by nonlinear regression with variable slope and automatic withdrawal of outliers with ROUT coefficient (Q = 5). […] Graphpad Prism software version 7.04 was used for all regressions.

For the next series, the system named is Vero cells (CCL-81). On the set-up: method as in Nunes et al., 2020. Conditions: 24 hours of treatment; confidence interval in brackets; ref Nunes et al., 2020; read-out: Vero cells (CCL-81) CC50 (CI); cited from earlier work.
For series [1], the system named is trypomastigotes infecting Vero cells. The series is described as follows: Infectivity assay (treatment before or during infection of Vero cells). The format is cell-based, Trypanosoma cruzi. Here is the method:
The trypomastigotes were treated with isoobtusilactone A (LC50/4 h of trypomastigotes) for 4 h, while the control trypomastigotes were incubated with drug-free medium for 4 h. These trypomastigotes were then seeded into 96-well plates (4 × 10^4 parasites per well) with already adhered Vero cells at a ratio of 10 parasites per host cell.
After 20 h of infection, the infected Vero cell culture with intracellular amastigotes was fixed, stained with DAPI, photographed, and analyzed as described for antiproliferative assay.
Already adhered Vero cells were incubated with recently collected trypomastigotes for 4 h in a medium containing isoobtusilactone A (LC50/4 h of amastigotes) or in a drug-free medium (negative control). After 4 h, the host cells were washed and drug-free fresh medium was added. The cells were incubated for another 20 h and then fixed, stained, photographed, and analyzed as described above.

The next series relates to Hep G2 cells. On the set-up: method as in PMID 22400995, PMID 18489163, PMID 17321026. Conditions: cited from earlier work.
Series [2] concerns amastigotes of T. cruzi (Dm28c). The series is described as follows: Antiproliferative assay on intracellular amastigotes in Vero host cells. The class given is cell-based, Trypanosoma cruzi. Here is the method:
To determine the antiproliferative effect of butanolides on intracellular amastigote forms (Dm28c), Vero cells were used as host cells. Vero cells were cultured in DMEM and maintained in a CO2 atmosphere at 37°C.
After 4 h of incubation for adherence and infection, the cells were washed with 1x phosphate buffered saline (PBS) and then incubated in DMEM for 20 h to allow differentiation of internalized trypomastigotes into amastigotes.
Vero cells infected with amastigotes were incubated for 4 or 24 h with the compounds (4 concentrations within the range 4–200 μM) in DMEM. After incubation, the cells were washed, fixed in methanol, stained with 4',6-Diamidino-2-phenylindole (DAPI), and photographed using Leica DMI 6000-B fluorescence microscope. The photos obtained were analyzed using the software ImageJ version 1.5 for quantification of total Vero cells and determination of the percentage of infected cells and number of amastigotes per cell. The 50% inhibitory concentration (IC50) was calculated using the infectivity index (II) described by Ceole et al.. DMSO (1%) treatment served as negative control and benznidazole treatment served as positive control.
as §1

The test system of series [3] is amastigotes and trypomastigotes. The experiment in a line: Ultrastructural analysis by transmission and scanning electron microscopy. The format is cell-based, Trypanosoma cruzi. On the procedure: Trypomastigotes were incubated with isoobtusilactone A (LC50/4 h of trypomastigote) for 2 h. The parasites were washed with cacodylate buffer (0.1 M) and fixed in cacodylate buffer (0.1 M) containing paraformaldehyde (4%) and glutaraldehyde (2.5%). The cells were then adhered to glass cover slips previously coated with poly-L-lysine, postfixed with osmium tetroxide (1%), dehydrated with graded ethanol series, and dried using a critical point dryer (Leica CPD 300). Finally, the samples were coated with a layer of gold in a sputtering device (Leica EM ACE 200).
The cells were fixed, dehydrated, and dried following the same procedure described above. Cell membrane of the host cells was randomly removed with the aid of an adhesive tape and the resulting samples were coated with a layer of gold in a sputtering device (Leica EM ACE 200).
Trypomastigotes were treated following the same procedure as described for scanning microscopy. After treatment, the cells were washed with cacodylate buffer (0.1 M) and fixed in cacodylate buffer (0.1 M) containing paraformaldehyde (4%) and glutaraldehyde (2.5%).
All samples were postfixed in osmium tetroxide (1%), dehydrated with acetone series, and embedded in EMbed 812® resin. […]

For series [4], the system named is epimastigote forms of CL Brener (TcVI). The experiment in a line: Epimastigote cell viability assay (MTS/PMS), CL Brener. The class given is cell-based, Trypanosoma cruzi. On the procedure: Epimastigote forms of three strains of T. cruzi, including Dm28c (TcI), CL Brener (TcVI), and Y strain (TcII), were maintained in liver infusion tryptose (LIT) medium supplemented with 10% fetal bovine serum at 28°C [16] were kindly provided by Oswaldo Cruz Institute/Fiocruz. For the experiments, exponential phase cultures were used. All assays were performed in triplicates in 96-well plates.
The absorbance of the formazan was measured at 490 nm using a microplate reader (Asys Expert Plus -Biochrom). In parallel, we determined the effect of 1% DMSO (negative control) and benznidazole (positive control) on the viability of epimastigotes and a replicate of each treatment was performed by fixing the epimastigotes with 4% paraformaldehyde prior to the addition of MTS/PMS (basal absorbance control).
as §1

Where [5] appears, read: treatment simultaneous to the infection, LC50/4 h of amastigote (20.75 μM).
The mark [6] stands for this setting: trypomastigotes treated before infection, LC50/4 h of trypomastigote.

The structures appear in SMILES notation.

One may read the CC50 as the concentration giving 50% cytotoxicity. For orientation: IC50 means the concentration that gives 50% inhibition.

Take `C=C1OC(=O)/C(=C/CCCCCCCCCCCCC)[C@@H]1O` [Isoobtusilactone A, isoobtusilactone A]: the CC50 at 4 h in the series “Cytotoxicity assay (MTT)” was 371 µM. Further, the CC50 in the series on Vero cells (CCL-81) was 156 µM. Further, the “reduction in the number of amastigotes per cell” value in series [1] (setting [5]) is 65%; in series [1] (setting [6]) it was roughly 40%. The “reduction in the number of infected cells” value is reported as 43% in series [1] (setting [5]) and 20% in series [1] (setting [6]). The “effect on tumor cells” value in the series on Hep G2 cells is on record as “inducing apoptosis”. The half-maximal inhibitory concentration (IC50) in series [2] (Trypanosoma cruzi, Vero, 24 hours of treatment, confidence interval in brackets, read-out: Amastigotes (Dm28c) IC50 (CI)) was determined as 23 µM; in series [4] (Trypanosoma cruzi, 4 h of treatment, read-out: IC50 epimastigotes strain CL Brener), 61.7 µM. Further, the “SI (selectivity index)” value was found to be 6.81 in series [2] (Vero CC50 versus amastigote IC50, 24 hours); 17.88 in series [2] (amastigotes, 4 h, Vero cells); 6.0 in series [4] (epimastigotes strain CL Brener, 4 h, Vero cells). Besides, the “ultrastructure of treated intracellular amastigotes (TEM)” value in series [3] (LC50/4 h of amastigotes, 4 h) was “strong and acute damage to the unique mitochondria”. In addition, the “ultrastructure of treated trypomastigotes (TEM)” value in series [3] (LC50/4 h of trypomastigote, 2 h) was “swelling and loss of internal content of mitochondria”.

The record behind these values is PMC7842926, “Synergistic effect and ultrastructural changes in Trypanosoma cruzi caused by isoobtusilactone A in short exposure of time” (PLoS ONE, 2021).
